In paper PMC4879574, “Identification of Leishmania donovani Topoisomerase 1 inhibitors via intuitive scaffold hopping and bioisosteric modification of known Top 1 inhibitors” (Scientific Reports, 2016):
Several values for one entry are separate records, joined by “and”; a condition that tells them apart may be missing. Equal entries are not always repeated. Where two headings read alike, the source gives them in different places.

Columns and labels:
[1] = target: Leishmania donovani Topoisomerase 1 (LdTop1) (Leishmania donovani, UniProt A0A3Q8IHS4+Q8WQM6); assay: Plasmid DNA relaxation assay, LdTop1 (simultaneous incubation); type: biochemical
Chain of Leishmania donovani Topoisomerase 1 (LdTop1) (Q8WQM6 entry or part of it): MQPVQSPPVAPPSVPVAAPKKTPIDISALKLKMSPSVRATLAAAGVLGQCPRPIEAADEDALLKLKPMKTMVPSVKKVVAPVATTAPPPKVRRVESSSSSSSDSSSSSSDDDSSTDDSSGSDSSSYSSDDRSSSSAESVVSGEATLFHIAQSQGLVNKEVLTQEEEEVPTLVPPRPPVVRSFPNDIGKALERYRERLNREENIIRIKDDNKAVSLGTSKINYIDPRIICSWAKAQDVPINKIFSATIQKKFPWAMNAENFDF
Chain of Leishmania donovani Topoisomerase 1 (LdTop1) (A0A3Q8IHS4 entry or part of it): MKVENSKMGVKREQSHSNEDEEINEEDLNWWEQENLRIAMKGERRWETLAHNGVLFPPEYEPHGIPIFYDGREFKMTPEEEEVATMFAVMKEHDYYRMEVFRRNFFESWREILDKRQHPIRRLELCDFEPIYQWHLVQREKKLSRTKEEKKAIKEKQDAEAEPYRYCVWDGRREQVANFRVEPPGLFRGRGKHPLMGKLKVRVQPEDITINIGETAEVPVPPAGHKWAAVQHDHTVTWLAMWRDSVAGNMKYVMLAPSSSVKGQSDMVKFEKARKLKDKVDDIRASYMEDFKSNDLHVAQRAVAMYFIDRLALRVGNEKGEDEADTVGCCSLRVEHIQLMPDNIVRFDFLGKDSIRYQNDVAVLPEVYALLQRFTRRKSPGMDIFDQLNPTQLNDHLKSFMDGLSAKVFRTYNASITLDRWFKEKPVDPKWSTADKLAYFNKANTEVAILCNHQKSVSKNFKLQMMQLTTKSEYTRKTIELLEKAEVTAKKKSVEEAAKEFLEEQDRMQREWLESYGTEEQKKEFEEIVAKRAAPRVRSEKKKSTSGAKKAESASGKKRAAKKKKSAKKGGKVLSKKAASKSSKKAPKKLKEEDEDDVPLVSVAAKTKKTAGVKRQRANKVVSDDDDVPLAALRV
Procedure: (§1) To investigate the inhibitory effect of our library compounds on the DNA relaxation activity of the recombinant Human and Leishmania topoisomerase 1 (Table 2), assays were performed involving supercoiled plasmid DNA, the enzymes (HTop1 and LdTop1) and our molecules. The enzymes were purified by the standard literature procedure.
All the experiments were conducted thrice and representative data from once set of them are expressed as mean ± SD.
(§2) The type I DNA topoisomerase are assayed by decreased mobility of the relaxed isomers of supercoiled pBS (SK^+) [pBlue-script (SK^+)] DNA in agarose gel. The relaxation assay was carried out as described previously with LdTop1B and HTop I, diluted in the relaxation buffer (25 mM Tris–HCl, pH 7.5, 5% glycerol, 0.5 mM DTT, 10 mM MgCl2, 50 mM KCl, […] and […] BSA) and supercoiled plasmid pBS (SK^+) DNA (85–95% were negatively supercoiled, with remainder being nicked circles)[9][28][29]. The reconstituted enzyme LdTop1B was assayed at 50 mM KCl concentration as described before. For all kinetic studies, the reaction mixtures containing the buffer and DNA were heated to 37 °C before addition of the enzymes. The reactions were rapidly quenched using stop solution and kept on ice. The gels were stained with ethidium bromide (EtBr) ([…]) and the amount of supercoiled monomer DNA band fluorescence were quantified by integration using Gel Doc 2000 under UV illumination (Bio-Rad Quantity One Software), as described previously.
Cells harvested from 1 litre of culture were separately lysed by lysozyme/sonication, and the proteins were purified through Ni-NTA (Ni^2+-nitriloacetate-agarose column (Qiagen, Hilden, Germany) followed by a phospho-cellulose column (P11 cellulose; Whatman, Maidstone Kent, UK) as described previously. Finally, the purified proteins LdTOP1L and LdTOP1S were stored at −70 °C. The concentrations of each protein were quantified by using Bradford Reagent (PIERCE, Thermo Fisher Scientific Inc., Rockford, USA). Purified LdTOP1L was mixed with purified LdTOP1S at a molar ratio of 1:1 to a total protein concentration of 0.5 mg/ml in reconstitution buffer [50 mM potassium phosphate, pH 7.5, 0.5 mM DTT, 1 mM EDTA, 0.1 mM PMSF and 10% (v/v) glycerol]. The mixture was dialyzed overnight at 4 °C and dialyzed fractions were used for plasmid relaxation activity.

[2] = target: T1, Human Top1 (HTop1) (Homo sapiens, UniProt P11387); assay: Plasmid DNA relaxation assay, HTop1; type: biochemical; conditions: averages of three experiments, read-out: HTop1 inhibition (EC50)
T1 construct: made in house; host or cells: Sf-9 insect cells infected with recombinant baculovirus (gift from Prof. J. J. Champoux)
T1 sequence (P11387 1-765): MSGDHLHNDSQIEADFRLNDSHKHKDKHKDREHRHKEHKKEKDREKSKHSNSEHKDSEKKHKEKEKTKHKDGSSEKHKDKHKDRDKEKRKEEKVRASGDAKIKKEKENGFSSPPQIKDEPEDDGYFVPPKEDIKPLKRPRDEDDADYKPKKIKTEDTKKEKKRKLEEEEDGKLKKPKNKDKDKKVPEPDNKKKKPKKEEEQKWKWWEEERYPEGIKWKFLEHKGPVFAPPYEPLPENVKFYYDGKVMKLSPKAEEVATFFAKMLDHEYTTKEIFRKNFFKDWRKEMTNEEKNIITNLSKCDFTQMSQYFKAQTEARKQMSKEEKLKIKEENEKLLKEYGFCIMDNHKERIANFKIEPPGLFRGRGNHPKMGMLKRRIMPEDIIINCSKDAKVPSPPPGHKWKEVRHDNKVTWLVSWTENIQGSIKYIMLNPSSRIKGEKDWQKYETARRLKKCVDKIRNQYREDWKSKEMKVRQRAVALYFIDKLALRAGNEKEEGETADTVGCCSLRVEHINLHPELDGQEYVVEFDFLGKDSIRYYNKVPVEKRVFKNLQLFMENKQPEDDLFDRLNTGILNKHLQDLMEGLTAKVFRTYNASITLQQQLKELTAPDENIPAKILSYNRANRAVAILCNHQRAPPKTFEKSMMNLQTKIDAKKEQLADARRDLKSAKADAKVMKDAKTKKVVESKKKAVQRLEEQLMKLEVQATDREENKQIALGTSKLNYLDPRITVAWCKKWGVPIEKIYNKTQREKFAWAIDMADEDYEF
Procedure: as §1, §2
The wild-type HTop1 (91 kDa) was purified from Sf-9 insect cells infected with the recombinant baculovirus (a kind gift from Prof. J. J. Champoux). Approximately, 1 * 10^9 Sf-9 cells were infected with the recombinant virus, and cells were harvested after 48-h of infection. The cells were lysed and enzyme was purified as described. Briefly, at 48 h post-infection, approximately 3 * 10^9 Sf-9 cells were harvested by centrifugation for 5 min at 400 * g. The cells were resuspended in 1 liter of ice-cold phosphate-buffered saline and centrifuged for 5 min at 400 * g. The nuclei were washed twice in 80 ml of lysis buffer minus Triton X-100 and resuspended in 40 ml of resuspension buffer (50 mM KCl, 10 mM Tris-Cl, pH 7.5, 2 mM MgCl2, 25 mM DTT, 0.4 mg/ml phenylmethylsulfonyl fluoride, 0.12 mg/ml aprotinin). The nuclear extract was stirred for 5 min at ~200 rpm. With continued stirring, 50 ml of polyethylene glycol (PEG) buffer (18% PEG 8000, 1 M NaCl, 10% glycerol) was added dropwise in order to precipitate the DNA. The PEG precipitate was pelleted by centrifugation and the resulting PEG supernatant was dialyzed against 4 liters of potassium phosphate buffer. The dialyzed PEG supernatant passed over a 10-ml bed volume of phosphocellulose (Whatman P11) equilibrated with PPB. The HTop1 flowed through the PS column and then passed over a Mono Q column followed by loaded onto a Mono S column. The Mono S column was eluted with a 25-ml 50–200 mM KPO4, pH 7.4, gradient. […] The peak Mono S fractions were pooled, concentrated with an Amicon ultrafiltration cell, dialyzed into storage buffer (50% glycerol, 10 mM Tris-hydrochloride, pH 7.5, 1 mM DTT, 1 mM EDTA), and stored at −20 °C.

[3] = LdTop1 relaxation, 12.5 uM, read-out: % inhibition, mean data
[4] = LdTop1 relaxation, 25 uM, read-out: % inhibition, mean data
[5] = LdTop1 relaxation, 50 uM, read-out: % inhibition, mean data
[6] = LdTop1 relaxation, 100 uM, read-out: % inhibition, mean data
[7] = plasmid DNA relaxation, averages of three experiments, read-out: LDTop1 inhibition (EC50)
[8] = read-out: % inhibition (CPT 100%), data 1, LdTop1 relaxation, 12.5 uM
[9] = read-out: % inhibition (CPT 100%), data 1, LdTop1 relaxation, 25 uM
[10] = read-out: % inhibition (CPT 100%), data 1, LdTop1 relaxation, 50 uM
[11] = read-out: % inhibition (CPT 100%), data 1, LdTop1 relaxation, 100 uM
[12] = read-out: % inhibition (CPT 100%), data 2, LdTop1 relaxation, 12.5 uM
[13] = read-out: % inhibition (CPT 100%), data 2, LdTop1 relaxation, 25 uM
[14] = read-out: % inhibition (CPT 100%), data 2, LdTop1 relaxation, 50 uM
[15] = read-out: % inhibition (CPT 100%), data 2, LdTop1 relaxation, 100 uM
[16] = supplement sheet Ld Top 1 data, concentrations in uM, read-out: EC50 (LdTop1, supplement sheet)

| inhibition at 12.5 µM [1, 3] | inhibition at 25 µM [1, 4] | inhibition at 50 µM [1, 5] | inhibition at 100 µM [1, 6] | LdTop1 inhibitory activity ([1]; plasmid DNA relaxation) | EC50 [1, 7] | inhibition at 12.5 µM [1, 8] | inhibition at 25 µM [1, 9] | inhibition at 50 µM [1, 10] | inhibition at 100 µM [1, 11] | inhibition at 12.5 µM [1, 12] | inhibition at 25 µM [1, 13] | inhibition at 50 µM [1, 14] | inhibition at 100 µM [1, 15] | EC50 [1, 16] | EC50 [2] | SMILES | other results |
| --- | --- | --- | --- | --- | --- | --- | --- | --- | --- | --- | --- | --- | --- | --- | --- | --- | --- |
| 50.1% | 65.2% | 85.1% | 99.5% | considerable activity | 10 µM and 10.1 µM | 50.1% | 66.8% | 85.8% | 100% | 50.1% | 63.7% | 84.4% | 98.9% | 10.2 µM | > 100 µM | COc1ccc(/C=C2\OC(=O)c3c2cc(C)[nH]c3=O)c(C)c1C [Compound 2] |  |
| 52.5% | 67.3% | 87.5% | 91.3% | considerable activity | 9.06 ± 1.77 µM | 51.2% | 68.8% | 88.7% | 93.7% | 53.7% | 65.8% | 86.2% | 88.9% | 9.06 µM | > 100 µM | Cc1cc2c(c(=O)[nH]1)C(=O)O/C2=C\c1ccccc1C(F)(F)F [Compound 3] |  |
|  |  |  |  | no inhibitory activity at all | > 100 µM |  |  |  |  |  |  |  |  |  | > 100 µM | Cc1cc2c(c(=O)[nH]1)C(=O)O/C2=C\c1c[nH]c2ccccc12 [Compound 5] |  |
|  |  |  |  | complete loss of activity | > 100 µM |  |  |  |  |  |  |  |  |  | > 100 µM | Cc1cc2c(c(=O)[nH]1)C(=O)O/C2=C\c1ccc2c(c1)OCO2 [Compound 6] |  |
|  |  |  |  | complete loss of activity | > 100 µM |  |  |  |  |  |  |  |  |  | > 100 µM | Cc1cc2c(c(=O)[nH]1)C(=O)O/C2=C\c1ccc(F)c(F)c1 [Compound 8] |  |
| 52.2% | 68.2% | 88.4% | 93% | considerable activity | 7.51 ± 1.02 µM | 52.9% | 69.6% | 89.7% | 95.5% | 51.4% | 66.8% | 87.2% | 90.5% | 7.51 µM | > 100 µM | Cc1cc2c(c(=O)[nH]1)C(=O)O/C2=C\c1cccc(Br)c1 [Compound 9] |  |
|  |  |  |  |  | > 100 µM |  |  |  |  |  |  |  |  |  | > 100 µM | Cc1cc2c(c(=O)[nH]1)C(=O)O/C2=C\c1ccc(Br)cc1 [Compound 10] |  |
|  |  |  |  | no inhibitory activity at all | > 100 µM |  |  |  |  |  |  |  |  |  | > 100 µM | Cc1cc2c(c(=O)[nH]1)C(=O)O/C2=C\c1cccc2ccccc12 [Compound 11] |  |
|  |  |  |  | inactive | > 100 µM |  |  |  |  |  |  |  |  |  | > 100 µM | COc1cccc(/C=C2\OC(=O)c3c2cc(C)[nH]c3=O)c1OC [Compound 12] |  |
|  |  |  |  |  | > 100 µM |  |  |  |  |  |  |  |  |  | > 100 µM | Cc1cc2c(c(=O)[nH]1)C(=O)O/C2=C\c1ccccc1 [Compound 13] |  |
| 30.6% | 48.1% | 61.5% | 87.2% | considerable activity |  | 32% | 46.9% | 58.6% | 88.2% | 29.1% | 49.4% | 64.3% | 86.2% | 35.6 µM | > 100 µM | Cc1cc2c(c(=O)[nH]1)C(=O)O/C2=C\c1cccc(Cl)c1 [Compound 14] | % inhibition (CPT 100%), data 1 ([1]; LdTop1 relaxation, 12.5 uM): 32.026%; % inhibition (CPT 100%), data 1 ([1]; LdTop1 relaxation, 25 uM): 46.8807%; % inhibition, mean data ([1]; LdTop1 relaxation, 50 uM): 61.4846%; % inhibition (CPT 100%), data 1 ([1]; LdTop1 relaxation, 100 uM): 88.2434%; % inhibition (CPT 100%), data 2 ([1]; LdTop1 relaxation, 100 uM): 86.2086%; % inhibition, mean data ([1]; LdTop1 relaxation, 100 uM): 87.226% |
| 42.1% | 55.3% | 75.2% | 91.7% | considerable activity | 17.4 ± 1.86 µM | 41.1% | 53.2% | 76.2% | 93% | 43.1% | 57.3% | 74.3% | 90.5% | 17.4 µM | > 100 µM | Cc1cc2c(c(=O)[nH]1)C(=O)O/C2=C\c1cccc(I)c1 [Compound 15] | % inhibition (CPT 100%), data 2 ([1]; LdTop1 relaxation, 50 uM): 74.2517% |
|  |  |  |  | no inhibitory activity at all | > 100 µM |  |  |  |  |  |  |  |  |  | > 100 µM | CC/C=C1\OC(=O)c2c1cc(C)[nH]c2=O [Compound 16] |  |
|  |  |  |  |  | > 100 µM |  |  |  |  |  |  |  |  |  | > 100 µM | Cc1cc2c(c(=O)[nH]1)C(=O)O/C2=C\c1ccc(Cl)cc1 [Compound 17] |  |
|  |  |  |  |  | > 100 µM |  |  |  |  |  |  |  |  |  | > 100 µM | Cc1cc2c(c(=O)[nH]1)C(=O)O/C2=C\c1ccc(I)cc1 [Compound 18] |  |
|  |  |  |  |  | > 100 µM |  |  |  |  |  |  |  |  |  | > 100 µM | COc1ccc(/C=C2\OC(=O)c3c2cc(C)[nH]c3=O)cc1 [Compound 19] |  |
